From US20100009017A1, “Anticancer Methods Using Extracts of Anemarrhena asphodeloides Bunge” (BIONOVO, INC., priority 2008, published 2010) come the findings set out here.

What all share (type): cell-based
For assay [1], the system named is BT474 cells. Put plainly: Cell death in BT474 cells (FIG. 5, FIG. 15). The following applies: for induction of cell death: BT474, 24 hr, BN108 0.5 mg/mL, Timosaponin A3 4 μg/mL, Timosaponin B2 50 μg/mL, lamarinase-treated Timosaponin B2 4 μg/mL. On the procedure:
FIG. 5. Effect of Timosaponins A3 and B2 on viability of breast cancer (BT474) and normal epithelial cells (MCF10A). Cells were treated with BN108 at 0.5 mg/ml, Timosaponin A3 at 4 μg/ml, or Timosaponin B2 at 50 μg/ml, inactivated lamarinase alone or lamarinase-treated B2 at 4 μg/ml for 24 hours.
FIG. 15. Conversion of Timosaponin B2 to Timosaponin A3 by lamarinase was confirmed by time of flight mass spectrometry (TOF MS). Disappearance of Timosaponin B2 and appearance of Timosaponin A3 results in an increase in cell death from 16% in the presence of inactivated lamarinase and Timosaponin B2 to 53% in the presence of activated lamarinase and Timosaponin B2.
The effect of Timosaponins A3 and B2 on the viability of breast cancer cells and normal epithelial cells was tested by treating cells with either 0.5 mg/mL BN108, 4 μg/mL Timosaponin A3, 50 μg/mL Timosaponin B2, inactivated lamarinase alone or lamarinase-treated Timosaponin B2 (4 μg/mL) for 24 hr. […] The difference in activity between Timosaponin A3 and lamarinase treated Timosaponin B2 is, on a molar basis, probably negligible, given that the quotient of the molecular weights of Timosaponin B2 (920 Da) and Timosaponin A3 (740 Da) is roughly equivalent to the ratio of the % dead cells in the Timosaponin A3 and the lamarinase-treated Timosaponin B2. Thus, it can be inferred that nearly all the Timosaponin B2 is converted into Timosaponin A3, and is active to induced apoptosis, in the presence of lamarinase.

Another assay relates to eIF2a. The assay is described as follows: Phosphorylation of eIF2a in BT474 cells (FIG. 7). Particulars: Timosaponin A3 5 μM, BN108 0.5 mg/mL. On the procedure: (§1) FIG. 7. Purified Timosaponin A3 and BN108 extract have similar effects on phosphorylation of eIF2a and on activation of SREBP2 as well as expression on SREBP2 target gene IDI1. BT474 cells were treated with TspA3 (5 μM) or BN108 (0.5 mg/ml). Both BN108 and Timosaponin A3 induce the pro-apoptotic gene REDD1 in prostate cancer cells.

The test system of another assay is non-cancerous cells. The assay is described as follows: Induction of apoptosis in vitro.
The subject of another assay is SREBP2. The assay is described as follows: SREBP2 activation in BT474 cells (FIG. 4B, FIG. 7). The following applies: Timosaponin A3 5 μM, BN108 0.5 mg/mL. On the procedure: FIG. 4. […] B. SREBP2 is activated by BN108 in both cell lines. Activated AKT was detected using antibody to phosphoserine 473 (Phospho-AKT) that is phosphorylated only in active kinase.
FIG. 7. Purified Timosaponin A3 and BN108 extract have similar effects on phosphorylation of eIF2a and on activation of SREBP2 as well as expression on SREBP2 target gene IDI1. BT474 cells were treated with TspA3 (5 μM) or BN108 (0.5 mg/ml).
In FIG. 4B, it can be seen that SREBP2 is activeated by BN108 in both the cancer cells (BT474) and the non-cancerous cells (MCF10A).
Both BN108 and Timosaponin A3 induce the pro-apoptotic gene REDD1 in prostate cancer cells.

Assay [2] has as its system BT474 cells. The assay is described as follows: FACScan propidium iodide / Annexin V viability and apoptosis (FIG. 9, table). Particulars: for cells surviving: BT474, 24 hours; for % Difference from control: control = DMSO. On the procedure:
FIG. 9. […] BT474 cells were treated for 24 hours, and percent of live cells was analyzed on FACScan based on permeability of dead cells for propidium iodide and binding of Annexin V.
The cytotoxic effects of BN108 and Timosaponin A3 are attenuated by cholesterol (CHL) and the caspase 4 inhibitor LEVD. […] Treatment of BT474 cells with […] cholesterol protected the cells from the effects of Timosaponin A3 and BN108, with about 80% of the cells surviving 24 hours in the presence of cholesterol (CHL).

The subject of another assay is cancer cells. The assay is described as follows: Induction of apoptosis in vitro.
Another assay deals with IDI1. The assay is described as follows: Expression of SREBP2 target gene IDI1 in BT474 cells (FIG. 7). Particulars: Timosaponin A3 5 μM, BN108 0.5 mg/mL. On the procedure:
as §1

A further assay relates to MM23 breast cancer cells. Put plainly: Cholesterol content of cell extracts (FIG. 8). The following applies: cancerous (MM23) breast cells. On the procedure: (§2) FIG. 8. Purified Timosaponin A3 and BN108 extract have similar effects on cholesterol synthesis on breast cancer cells MM23 and normal MCF10A cells. Cells were treated with either BN108 or TspA3 for indicated times, and cell extracts were analyzed for cholesterol content, which was normalized to the protein content.
(§3) BN108 and Timosaponin A3 had similar effects on cholesterol (CHL) synthesis in cancerous and normal cells.

A further assay deals with MCF10A cells. Put plainly: Cholesterol content of cell extracts (FIG. 8). Particulars: normal (MCF10A) breast cells, through the first 8 hours after treatment. On the procedure: as §2, §3
For the next assay, the system named is REDD1. Put plainly: REDD1 induction in Du145 cells (FIG. 6). The following applies: Du145 prostate cancer cells; BN108 0.5 mg/mL, Timosaponin A3 7.5 μM. On the procedure:
FIG. 6. Pro-apoptotic gene REDD1 is induced in prostate cancer cell line Du145 by treatment with BN108 (0.5 mg/ml) and Timosaponin A3 (7.5 μM). Both BN108 and Timosaponin A3 induce the pro-apoptotic gene REDD1 in prostate cancer cells.

The structures appear in SMILES notation.

Consider `CC1CCC2(OC1)OC1CC3C4CCC5CC(OC6OC(CO)C(O)C(O)C6OC6OC(CO)C(O)C(O)C6O)CC[C@]5(C)C4CC[C@]3(C)[C@H]1[C@@H]2C` (stereo partly shown) [Timosaponin A3], for which the “induction of cell death” value in the assay on BT474 cells [1] is reported as “induced cell death”. For the same compound, in the assay with eIF2a, the “phosphorylation of eIF2a” value was “increase phosphorylation of elF2a”. Moreover, in the assay with non-cancerous cells, the induction of apoptosis result is reported as “does not induce apoptosis”. The “expression of SREBP2” value in the assay with SREBP2 is given as “increase expression of SREBP2”. Besides, in the assay with BT474 cells [2], the “% Total apoptotic” value is given as 68%, the “% early apoptotic” value came to 35%, the “% late apoptotic” value was 33% and the cells surviving stood at 40%. In the assay on BT474 cells [2], the “% Difference from control” value stood at 57%. The cells surviving result with BT474 cells [2] (with 250 mM cholesterol (CHL)) is listed as “about 80%”. In addition, the induction of apoptosis entry in the assay with cancer cells is “induces of apoptosis”. Further, the “expression of IDI1” value in the assay with IDI1 is “increase expression of IDI1”. In addition, the cholesterol synthesis result with MM23 breast cancer cells is “increase cholesterol synthesis slightly”. Besides, the cholesterol synthesis result in the assay with MCF10A cells is recorded as “reduce cholesterol synthesis”. For the same compound, the REDD1 gene induction result in the assay with REDD1 is on record as “induced”.
With `C[C@@H](CCC1(O)O[C@H]2C[C@H]3[C@@H]4CC[C@@H]5C[C@@H](O[C@@H]6O[C@H](CO)[C@H](O)[C@H](O)[C@H]6O[C@@H]6O[C@H](CO)[C@@H](O)[C@H](O)[C@H]6O)CC[C@]5(C)[C@H]4CC[C@]3(C)[C@H]2[C@@H]1C)CO[C@@H]1O[C@H](CO)[C@@H](O)[C@H](O)[C@H]1O` (stereo partly shown) [Timosaponin B2], in the assay on BT474 cells [1], the “induction of cell death” value is given as “did not induce cell death”. The cell death in the assay on BT474 cells [1] (in the presence of inactivated lamarinase (FIG. 15)) worked out at 16%. For the same compound, in the assay on BT474 cells [2], the “% Total apoptotic” value amounted to 12%, the “% early apoptotic” value is on record as 7%, the “% late apoptotic” value came to 5% and the “% Difference from control” value is 1%. Moreover, the induction of apoptosis result with cancer cells was “does not induce apoptosis”.
